According to PMC5442318, “Hundreds of dual-stage antimalarial molecules discovered by a functional gametocyte screen” (Nature Communications, 2017):
Like-named read-outs stand apart in the source and are kept apart here.

Key:
[1] = test system: P. falciparum asexual blood stages; details: cited from earlier work; for IC50: read-out: Pf Asexual blood stages XC50
[2] = test system: P. falciparum female gametes; test: Pf FGAA with compounds added 30 min after triggering gametocyte activation (gamete-targeting); assay type: cell-based, Plasmodium falciparum NF54; details: 0h incubation time
[3] = test system: HepG2 cells; test: HepG2 cytotoxicity assay; assay type: cell-based
Summary of the method: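 Once incubation ended, the HepG2 plates were warmed to room temperature for 30 min alongside the CellTiter-Glo reagent. Luminescent signal was developed by reagent addition and stabilized for 10 min before plate reading.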

[4] = test system: P. falciparum stage V female gametocytes; test: P. falciparum female gametocyte activation assay (Pf FGAA), 24 h or 48 h preincubation, Pfs25 expression readout; assay type: cell-based, Plasmodium falciparum NF54; design: key to Biological profile: 49 compounds that were only active with a 48 h exposure (designated as slow-acting); 29 compounds additionally showed activity with only 24 h exposure (designated as fast-acting); when the compounds were added 30 min after triggering gametocyte activation, 12 compounds prevented cell surface expression of Pfs25 (designated as gamete-targeting); details: for Pf FGAA classification: SLOW / FAST / GAMETE from activity at 48h, 24h, 0h incubation
Summary of the method: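 Female activation, triggered by xanthurenic acid and cooling, was scored by imaging Cy3-labelled anti-Pfs25 female gametes after 24 h at 26 °C. Beforehand, purified NF54 stage V gametocytes had been incubated with compound for either 24 h or 48 h (37 °C, 3% O2). Values are pIC50 from full-curve regression.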

[5] = test system: P. falciparum stages IV–V gametocytes; test: Gametocytocidal ATP-depletion assay (gametocyte ATP bioluminescence); assay type: cell-based, Plasmodium falciparum; details: for inhibition at 2 µM: Plasmodium falciparum, mean
Summary of the method: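 Read-out is luciferase luminescence of parasite ATP (BacTiter-Glo), standing in for viability. Double-purified mature stage IV–V gametocytes, 12,500 per well, were exposed 48 h at 37 °C in low-O2 gas; screening concentration 2 μM.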

[6] = TCAMS asexual blood stage data, ref 1 (Gamo, F. J. et al., Nature 465, 305-310, 2010)
[7] = TCAMS data, ref 1 (Gamo, F. J. et al., Nature 465, 305-310, 2010)
[8] = 24h incubation time, read-out: Pf FGAA IC50 (µM) 24h
[9] = P. falciparum female gametocytes, mean, read-out: Gametocytes mean Pf FGAA IC50
[10] = TCAMS data, ref 1 (Gamo et al., 2010)
[11] = Plasmodium falciparum, 24h incubation time, read-out: Pf FGAA IC50 (µM) 24h
[12] = HepG2 TOX50 versus Pf FGAA IC50
[13] = Plasmodium falciparum, P. falciparum female gametocytes, mean, read-out: Gametocytes mean Pf FGAA IC50
[14] = mean, P. falciparum female gametocyte activation assay, read-out: Gametocytes mean Pf FGAA IC50
[15] = mean, read-out: Gametocytes mean Pf FGAA IC50
[16] = Plasmodium falciparum, mean, read-out: Gametocytes mean Pf FGAA IC50

Row | SMILES | IC50 [1, 6] [nM] | Pf Asexual stages XC50 [1, 7] [nM] | IC50 [2] [µM] | HepG2 cells mean TOX50 ([3]; HepG2 cells; mean) [µM] | IC50 [4, 8] [µM] | Pf FGAA classification [4] | Gametocytes mean ATP inhibition at 2µM [5] [%] | IC50 [1, 10] [nM] | IC50 ([2]; Plasmodium falciparum) [µM] | HepG2 cells mean TOX50 ([3]; mean) [µM] | IC50 [4, 11] [µM] | inhibition at 2 µM [5] [%] | other results
1 | CCCc1cc(=O)[nH]c(-n2nc(C)cc2NC(=O)CC(c2ccccc2)c2ccccc2)n1 [TCMDC-124940] | 620 | 510 | > 20 | >100 | 0.41 | FAST | 0.055 |  |  |  |  |  | HepG2 cells TOX50 ([3]; HepG2 cells): >100 µM; IC50 [4, 9]: 1.3 µM
2 | COc1cc2nc(-c3ccc(Br)cc3)cc(N)c2cc1OC [TCMDC-138933] |  | 170 |  |  |  | SLOW |  | 170 | 8.17 | 4.95 | 3.91 | 0.89 | Selectivity ratio ([3]; HepG2 TOX50 vs Pf FGAA IC50): 6.53; selectivity ratio (selectivity index) ([3]; HepG2 Tox50 vs Pf FGAA IC50): < 10; Biological profile ([4]; Pf FGAA with 48 h, 24 h or post-activation addition, active = IC50 below 2 μM): slow-acting; IC50 ([4]; Plasmodium falciparum, stage V gametocytes, 48 h exposure, read-out: PfFGAA IC50): 0.76 µM
3 | COc1ccc(NC(=O)Nc2ccc(Nc3nc(C)cc(N4CCCC4)n3)cc2)cc1 [TCMDC-124958] | 140 | 140 |  | 11.89 |  | FAST |  |  | 10.1 |  | 2.16 | -9.01 | Selectivity ratio [3, 12]: 11.05; IC50 [4, 13]: 1.08 µM
4 | CN1CCN(CCCNc2ncc3c(-c4ccc(NC(=O)Nc5cc(C(F)(F)F)ccc5F)c(F)c4)nn(C)c3n2)CC1.O=C(O)C(F)(F)F [TCMDC-141611] | 860 | 860 | 11.3 |  | 11.1 | SLOW | -15.14 |  |  |  |  |  | HepG2 cells mean TOX50 ([3]; mean; HepG2 cells): 4.90 µM; IC50 [4, 14]: 0.87 µM
5 | CN1CCN(Cc2ccc(-c3cc4c(Nc5ccc(OCc6cccc(F)c6)c(Cl)c5)ncnc4s3)[nH]2)CC1 [TCMDC-135458] | 770 | 770 | > 20 | 10.98 |  | SLOW | -48.07 |  |  |  |  |  | IC50 [4, 9]: 2.41 µM
6 | COC(=O)c1ccc(-c2ccc(C(=O)NCC3CCN(c4nc(N)c5cc(OC)c(OC)cc5n4)CC3)cc2)cc1 [TCMDC-138721] |  | 190 | 13.5 |  | 1.88 | FAST |  | 190 |  | 6.10 |  |  | IC50 [4, 15]: 0.91 µM; Gametocytes mean ATP inhibition at 2µM (%) [5]: 31.66%
7 | CN(C)CCCNCc1ccc(-c2ccc(C(F)(F)F)cc2)cc1 [TCMDC-140011] |  | 870 |  |  |  | FAST |  | 870 | > 20 | 4.90 | 1.87 | 1.03 | Selectivity ratio ([3]; HepG2 TOX50 vs Pf FGAA IC50): 2.92; IC50 [4, 16]: 1.68 µM
8 | Cc1ccc(-n2c(Sc3ncnc4sccc34)nnc2N2CCCC2)cc1 [TCMDC-125247] | 260 | 260 | > 20 | 89.13 | > 20 | SLOW | 22.13 |  |  |  |  |  | IC50 [4, 9]: 0.49 µM
9 | CN1CCN(Cc2ccc(OCc3cccc(COc4ccc(CN5CCN(C)CC5)cc4I)c3)c(I)c2)CC1.Cl [TCMDC-137239] |  | 1010 | 15.1 |  | 6.48 | SLOW |  | 1010 |  | 5.01 |  |  | IC50 [4, 15]: 1.85 µM; Gametocytes mean ATP inhibition at 2µM (%) [5]: -13.43%
10 | O=C(NCC1CCN(Cc2cccc(C(F)(F)F)c2)C1)c1cc(-c2cccc(C(F)(F)F)c2)cs1.O=C(O)C(F)(F)F (stereo not drawn) [TCMDC-134483] | 610 | 610 | > 20 | 16.22 | 2.45 | SLOW | -4.13 |  |  |  |  |  | IC50 [4, 9]: 1.65 µM
11 | Clc1cc(Br)ccc1-c1ccc(CNCC2CCNCC2)o1 [TCMDC-124617] | 1510 | 1510 |  | 4.37 |  | SLOW |  |  | > 20 |  | > 20 | -8.62 | Selectivity ratio [3, 12]: 6.08; IC50 [4, 13]: 0.72 µM
12 | N=C(N)Nc1nc(-c2ccc(NCc3ccc(CNc4cccc(-c5csc(NC(=N)N)n5)c4)cc3)cc2)cs1 [TCMDC-140699] |  | 310 | 0.89 |  | 0.14 | GAMETE |  | 310 |  | 4.79 |  |  | IC50 [4, 15]: 0.9 µM; Gametocytes mean ATP inhibition at 2µM (%) [5]: 23.62%
13 | CC(Cc1ccc(NC(=O)c2ccc(CC(C)NCc3ccc(Cl)cc3)cc2)cc1)NCCc1cccc(Cl)c1 (stereo not drawn) [TCMDC-139810] |  | 450 | > 20 |  | 9.9 | SLOW |  | 450 |  | 4.03 |  |  | IC50 [4, 15]: 0.86 µM; Gametocytes mean ATP inhibition at 2µM (%) [5]: -5.12%
14 | N#CC(c1ccc(Br)cc1)c1ccc2c(C(F)(F)F)cc(C(F)(F)F)nc2n1 (stereo not drawn) [TCMDC-123754] | 440 | 440 |  | 2.32 |  | SLOW |  |  | > 20 |  | > 20 | -2.55 | Selectivity ratio [3, 12]: 2.01; IC50 [4, 13]: 1.16 µM
15 | CN(C)CCN1CCN(CCCN2c3ccccc3Sc3ccc(C(F)(F)F)cc32)CC1.Cl [TCMDC-142257] | 760 | 760 | > 20 |  | 1.58 | FAST | 23.41 |  |  |  |  |  | HepG2 cells mean TOX50 ([3]; mean; HepG2 cells): 77.62 µM; IC50 [4, 14]: 5.25 µM
16 | CN(C)CCOc1ccc(NC(=O)NC(C)(C)c2nc(-c3ccc(Cl)c(O)c3)c(-c3ccncc3)[nH]2)cc1.Cl [TCMDC-140744] |  | 110 | 10.6 |  | 0.23 | FAST |  | 110 |  | 14.30 |  |  | IC50 [4, 15]: 0.73 µM; Gametocytes mean ATP inhibition at 2µM (%) [5]: -0.87%
17 | CCCCCCCN1CC[C@@H](CCCc2ccnc3ccc(OC)cc23)[C@@H](CNC)C1.O=C(O)C(=O)O [TCMDC-139875] |  | 210 | 14.4 |  | 1.86 | FAST |  | 210 |  | 5.89 |  |  | IC50 [4, 15]: 0.73 µM; Gametocytes mean ATP inhibition at 2µM (%) [5]: 9.45%
18 | Cc1ccc(Cl)c2sc(N3CCN(C(=O)c4ccc([N+](=O)[O-])o4)CC3)nc12 [TCMDC-124311] | 320 | 320 | > 20 | 25.79 | 1.5 | FAST | -39.73 |  |  |  |  |  | IC50 [4, 9]: 1.44 µM
19 | CN(C)CCCNCc1cn(S(=O)(=O)c2ccccc2Cl)c2ccccc12 [TCMDC-136302] |  | 350 |  |  |  | FAST |  | 1070 | > 20 | 11.78 | 0.51 | 3.27 | Selectivity ratio ([3]; HepG2 TOX50 vs Pf FGAA IC50): 6.39; IC50 [4, 16]: 1.84 µM
20 | CN(C)c1ccc(-c2csc(C(=O)NCC3CCN(Cc4cccc(C(F)(F)F)c4)C3)c2)cc1.O=C(O)C(F)(F)F (stereo not drawn) [TCMDC-134486] | 840 | 840 | > 20 | 8.18 | 2.56 | SLOW | -14.11 |  |  |  |  |  | IC50 [4, 9]: 1.56 µM
21 | CCCC(=O)NC(c1ccc(C)cc1)c1ccc2cccnc2c1O (stereo not drawn) [TCMDC-123605] | 960 | 960 |  | 9.22 |  | FAST |  |  | 3.99 |  | 1 | 20.2 | Selectivity ratio [3, 12]: 5.32; IC50 [4, 13]: 1.73 µM
